Test results: patent US6589938B2, “Use of angiotensin I derivatives as an agent for the treatment and prevention of infarction-related cardiac injuries and disorders” (National University of Singapore, priority 2001, dated 2003)

Test system: experimentally-infarcted rats
Test: Infarct scar area and transmurality after coronary occlusion and reperfusion in rats
Format: in vivo, Sprague Dawley rats
Conditions: for Transmurality, Treated: infarct scar area divided by infarct area; for Transmurality, Treated / Infarct Scar Area, Treated: mean ± SEM, 7 rats; for Infarct Scar Area, Treated: left ventricle
Experimental: The experimental protocol for induction of cardiac infarction by coronary occlusion and reperfusion in rats was carried out as described by Oh et al. (10). Briefly, each rat was anaesthetized with 7% w/v chloral hydrate (0.4 g/kg, i.p.). Each anaesthetised animal was intubated and ventilated with a rodent ventilator. Under a dissecting microscope, a left thoracotomy was performed in the fourth intercostal space, and the pericardium open. The left coronary artery was encircled with a curved needle and a silk suture. The left coronary artery was ligated for 45 minutes, followed by reperfusion. In sham-operated animals, the left coronary artery was not ligated. The chest was closed in layers and the pneumothorax evacuated.
Following the surgery, each animal was placed in a cage. The animals had access to water and rat chow ad libitum. The animals were randomly divided into the control group and treatment group. Each group consisted of 7 animals. The treatment group was orally administered 381 nmoles/kg/day of des-Asp-angiotensin I (dissolved in 1 ml water) for 14 days. The control group was similarly administered an equivalent volume of water. The experiment was repeated with the following doses of des-Asp-angiotensin I: 762, 1524, and […] nmoles/kg/day.
On the fourteenth day following surgery, animals were anaesthetised as before. Rats were ventilated as before and the thorax was opened. A polyethylene catheter (PE 200) was introduced into the left ventricle (via the left atrial appendage) and another into the descending aorta retrogradely. The heart was arrested with 2 ml injection of saturated KCl solution into the right atrium. After aortic perfusion with heparinized saline (10,000 units/L) for 3 minutes to wash out the blood, the myocardium was perfused retrogradely from the aorta with 4% phosphate-buffered paraformaldehyde at a constant pressure of 60 mm Hg for 20 minutes. The right atrium and pulmonary artery were opened to decompress the right ventricle during fixation. The left ventricle intracavity pressure was maintained at 10 mm Hg by use of the cathether introduced via the left atrial appendage.
After hardening, the heart was excised and postfixed in 4% paraformaldehyde for 24 hours. Following postfixing, the atria and adhensions were carefully dissected away and the right and left ventricles were separated, the interventricular septum being included with the left ventricle. The left ventricle was processed for paraffin embedment. Transverse serial sections of 40 μm thick were cut from the apex of the ventricle to its base. Every section at 1 mm intervals was mounted and stained with Milligan's trichrome. The infracted tissue (infarct scar) was stained blue. Two sections, taken at 5 and 6 mm, respectively, from the apex of each ventricle were used for morphometric determination of the infarct scar area and transmurality. The morphometry system consisted of a BX40 light microscope (Olympus, Japan) fitted with a KYF55B colour video camera (JVC, Japan) and a Pentium 166 MHz/MKX microcomputer (Datamini, Singapore) installed with an image Pro Plus 3.0 System (Media Cybernetics, USA) for Windows 95™. The infarct scar area, infarct area (which measured the scar and the surrounding surviving ventricular tissue) were determined in mm2. Transmurality is equal to the infarct scar area divided by infarct area.
The results of the study are summarized in Table 2 Data were expressed as mean±SEM. Significant differences were determined by one way ANOVA and post hoc Newman Kleuf test. The accepted level of significance was p<0.05. […] The effect was dose dependent and significant anti-infarction action was brought about by an oral dose of 1524 nmoles/kg/day.

[1] = 381 nmole/kg/day orally for 14 days
[2] = 762 nmole/kg/day orally for 14 days
[3] = 1524 nmole/kg/day orally for 14 days, * p < 0.05 vs Control
[4] = 3096 nmole/kg/day orally for 14 days, * p < 0.05 vs Control

Des-Aspartate angiotensin I [des-Asp-angiotensin I]
Transmurality, Treated [1]: 32.93 ± 1.94% | Infarct Scar Area, Treated [1]: 5.85 ± 0.25 mm^2 | Transmurality, Treated [2]: 33.70 ± 3.40% | Infarct Scar Area, Treated [2]: 5.60 ± 0.30 mm^2 | Transmurality, Treated [3]: 24.67 ± 2.37* % | Infarct Scar Area, Treated [3]: 5.11 ± 0.54* mm^2 | Transmurality, Treated [4]: 31.26 ± 1.53* % | Infarct Scar Area, Treated [4]: 5.86 ± 0.20* mm^2 | attenuating the infarct size area and transmurality (experimentally-induced myocardial infarcted rats, oral, 14 days): effective agent | oral dose that brought about significant anti-infarction action (oral, 14 days, p<0.05, one way ANOVA): 1524 nmol/kg/day
